According to patent US11926613B2, “Kinase inhibitors for the treatment of central and peripheral nervous system disorders” (UNIVERSITY OF MIAMI, priority 2017, dated 2024):

How the values were obtained:
[1] = test system: neurons from hippocampi of E18 rat embryos; test: Neurite growth length (% NTL) in cultured E18 rat hippocampal neurons, 9-point dose response, 48 hours; format: cell-based; details: Rattus norvegicus, Neuron, 48 h; for activity at 0.078 µM: 78 nM; for activity at 0.156 µM: 156 nM; for activity at 0.312 µM: 312 nM; for activity at 0.625 µM: 625 nM
Protocol: PRE-COATING CULTURE PLATES: On the day before the experiment, 96-well plates were pre-coated by plating 50 μl of Poly-D-lysine solution (PDL, 0.5 mg/mL) in each well. The next morning, the plates were washed four or five times with HBSS or PBS (150 μl/rinse), then left in buffer until cell plating
PREPARING THE CELLS: A timed pregnant rat carrying E18 embryos was euthanized using an IACUC approved method. In a laminar flow hood, the embryos were removed and placed in a petri dish containing Hank's Balanced Salt Solution (HBSS) with 20 mM HEPES, pH 7.3. Pup brains were dissected (see Meberg et al., 2003) and hippocampi were collected in 15 mL a conical tube containing Hibernate E with SM1 (2% v/v).
Dissociation media was prepared by combining 4.5 mL of Hibernate E (without SM1) with 0.5 mL of trypsin and 100 μl of DNAse solution. The medium over the hippocampi was carefully removed and replaced with dissociation solution, then incubated at 37° C. for 15-20 minutes, occasionally swirling the tube.
Using flame polished cotton plugged Pasteur pipettes, the dissociation media was removed, and then 5 mL of Hibernate E containing SM1 were added. The tube was swirled to thoroughly wash the tissue. The tissue was allowed to settle to the bottom of the tube, and the rinse solution was carefully removed. This step was repeated 5 times to dilute out trypsin and DNAse and remove any debris from lysed cells.
The final rinse media was removed from the tube and 1 pipette-full (1-2 mL) of Hibernate E with SM1 was added. Using the flame-polished Pasteur pipette (pre-wetted with rinse media), the tube was triturated until all cells had dissociated and no visible chunks of tissue remained. Fewer than ten triturations were typically performed. The volume was adjusted to 8-12 mL using Hibernate E containing SM1, the well was mixed and cell concentration was determined.
PLATING: The cells were diluted in culture media (NbActiv4 Cell-culture media) to a final concentration of 10,000 cells/mL. The HBSS was aspirated from PDL coated plates, and 150 μL of cell solution was loaded in the middle 48 wells at 1500 cells per well. Water was loaded in the outer wells to decrease evaporation from edge wells. Cells were allowed to adhere for 2 hours in tissue culture incubator prior to treatment.
TREATMENT: Compounds were diluted to various concentrations to provide 9 dose response concentrations of 20 μM, 10 μM, 5, μM, 2.5 μM, 1.25 μM, 0.625 μM, 0.3125 μM, 0.15625 μM, and 0.078125 μM. The plates were cultured for 48 hours, exposed to the compound at the various dose response concentrations.
FIXING THE CULTURES: The culture medium was removed from the plates and immediately replaced with 100-200 μl of warm (37° C.) 4% paraformaldehyde (PFA) solution in phosphate-buffered saline (PBS). The cells were fixed for 15-20 minutes at room temperature, and then rinsed with PBS (200 μl/well×3).
STAINING AND IMAGING: The PBS was removed and replaced with 100 μl of blocking/permeabilization buffer (PBS, 0.2% fish gelatin, 0.03% Triton X-100, 0.02% NaN3), then incubated overnight at 4° C. To this was added 100 μl of primary antibody solution (mouse anti-Beta III tubulin in blocking buffer) and incubate overnight at 4° C. The wells were rinsed with PBS (200 μl×3), which was then removed and replaced with 100 μl of secondary antibody solution (Goat anti-mouse Alexa 488, 10 μg/ml Hoechst 33342, 0.2% fish gelatin, 0.02% azide, in PBS). The plate was shaken gently on a rotating shaker for 2 hours, then rinsed with PBS (200 μl×5).
The plate was imaged using a Cellomics ArrayScan VTI in 2 different channels for nuclear staining (Hoechst) and cell body/neurite staining (βIII-tubulin). Typically, nine fields per well were imaged with a 5× objective and automatically traced by the Neuronal Profiling Bioapplication. To get reproducible results, at least 200-300 valid neurons were measured per condition. […]

Primary Neurons = test: HCS neurite outgrowth assay (High Content Screening with Primary Neurons); format: cell-based; details: Primary neuron

SMILES	activity at 0.078 µM [1] [%]	activity at 0.156 µM [1] [%]	activity at 0.312 µM [1] [%]	activity at 0.625 µM [1] [%]	activity at 1.25 µM [1] [%]	activity at 2.5 µM [1] [%]	activity at 5 µM [1] [%]	activity at 10 µM [1] [%]	activity at 20 µM [1] [%]	EC50 (Primary Neurons) [µM]
O=C(Nc1ccncc1NC(=O)c1ccncc1)c1ccc(C(=O)c2ccccc2)cc1 [Example A3, N-[4-(4-benzoylbenzamido)pyridin-3-yl]pyridine-4-carboxamide]	98.3	99.9	96.3	92.6	96.7	95.1	93.6	92.9	96.6	0.798
COc1ccc(OC)c(C(=O)c2ccc(C(=O)Nc3ccccc3NC(=O)c3ccncc3)cc2)c1F [Example A4, N-{2-[4-(2-fluoro-3,6-dimethoxybenzoyl)benzamido]phenyl}pyridine-4-carboxamide]	102	99	110	93.2	105	114	114	132	161	9.64
COc1ccc(O)c(C(=O)c2ccc(C(=O)Nc3ccccc3NC(=O)c3ccncc3)cc2)c1F [Example A5, N-{2-[4-(2-fluoro-6-hydroxy-3-methoxybenzoyl)benzamido]phenyl}pyridine-4-carboxamide]	97.8	102	97.2	102	102	113	116	124	132	10.4
O=C(Nc1ccccc1NC(=O)c1ccc(C(=O)c2ccccc2)cc1)c1ccncc1 [Example A6, N-[2-(4-benzoylbenzamido)phenyl]pyridine-4-carboxamide]	94.7	106	83	95.4	94.1	92.9	105	107	121	1.67
O=C(c1ccccc1)c1ccc(C(=O)N2CCN(C(=O)c3ccncc3)CC2)cc1 [Example A7, 1-(4-benzoylbenzoyl)-4-(pyridine-4-carbonyl)piperazine]	97	94.8	95.7	91.2	90.8	88.3	92	86.4	91.8	1.67
COc1ccc(OC)c(C(=O)c2ccc(C(=O)N3CCN(C(=O)c4ccncc4)CC3)cc2)c1F [Example A8, 1-[4-(2-fluoro-3,6-dimethoxybenzoyl)benzoyl]-4-(pyridine-4-carbonyl)piperazine]	99.2	98.7	96.4	99	92.9	94.4	93.8	93.2	81.6	> 20
COc1ccc(O)c(C(=O)c2ccc(C(=O)N3CCN(C(=O)c4ccncc4)CC3)cc2)c1F [Example A9, 3-fluoro-4-methoxy-2-{4-[4-(pyridine-4-carbonyl)piperazine-1-carbonyl]benzoyl}phenol]	94.5	91.5	90.7	96.6	88	98.9	98.3	89.6	89.1	4.92
O=C(N[C@@H]1c2ccccc2C[C@H]1NC(=O)c1ccncc1)c1ccc(C(=O)c2ccccc2)cc1 [Example A11, N-[(1R,2R)-1-(4-benzoylbenzamido)-2,3-dihydro-1H-inden-2-yl]pyridine-4-carboxamide]	104	102	87.4	93.8	91.7	98.5	94.6	110	110	5.58
COc1ccc(OC)c(C(=O)c2ccc(C(=O)N[C@@H]3c4ccccc4C[C@H]3NC(=O)c3ccncc3)cc2)c1F [Example A12, N-[(1R,2R)-1-[4-(2-fluoro-3,6-dimethoxybenzoyl)benzamido]-2,3-dihydro-1H-inden-2-yl]pyridine-4-carboxamide]	96.6	90.7	91.2	93.1	90.6	91	106	98.6	119	> 20
COc1ccc(O)c(C(=O)c2ccc(C(=O)N[C@@H]3c4ccccc4C[C@H]3NC(=O)c3ccncc3)cc2)c1F [Example A14, N-[(1R,2R)-1-[4-(2-fluoro-6-hydroxy-3-methoxybenzoyl)benzamido]-2,3-dihydro-1H-inden-2-yl]pyridine-4-carboxamide]	105	111	118	119	127	126	140	154	175	> 20
O=C(N[C@@H]1CCC[C@H]1NC(=O)c1ccc(C(=O)c2ccccc2)cc1)c1ccncc1 [Example A15, N-[(1R,2R)-2-(4-benzoylbenzamido)cyclopentyl]pyridine-4-carboxamide]	98.5	106	111	114	110	107	110	122	136	7.84
COc1ccc(OC)c(C(=O)c2ccc(C(=O)N[C@@H]3CCC[C@H]3NC(=O)c3ccncc3)cc2)c1F [Example A17, N-[(1R,2R)-2-[4-(2-fluoro-3,6-dimethoxybenzoyl)benzamido]cyclopentyl] pyridine-4-carboxamide]	99.7	100	104	99.8	103	113	112	121	119	1.83
COc1ccc(O)c(C(=O)c2ccc(C(=O)N[C@@H]3CCC[C@H]3NC(=O)c3ccncc3)cc2)c1F [Example A18, N-[(1R,2R)-2-[4-(2-fluoro-6-hydroxy-3-methoxybenzoyl)benzamido]cyclopentyl] pyridine-4-carboxamide]	113	115	119	120	121	133	130	131	140	6.61
